Measurements reported in ChEMBL document CHEMBL3525914, “Induction of hepatic multidrug resistance-associated protein 3 by ethynylestradiol is independent of cholestasis and mediated by estrogen receptor” (Drug Metab Dispos, 2013).

Legend:
Rattus norvegicus [1] = assay: Toxicity in Wistar rat assessed as biliary excretion of total bile salts per gm of liver at 5 mg/kg, sc administered as single dose after 5 hrs (reference value: 50 +/- 6 nmol/min); type: organism-based; design: dose 5 mg/kg, route subcutaneous; conditions: in vivo
Hepatocyte [2] = assay: Effect on Mrp2 mRNA level in Wistar rat hepatocytes at 1 to 10 uM after 5 hrs by qRT-PCR analysis; type: ADME, cell-based
Rattus norvegicus [3] = assay: Toxicity in Wistar rat assessed as increase in Mrp3 mRNA level at 5 mg/kg, sc administered as single dose after 5 hrs by qRT-PCR analysis; type: organism-based; design: dose 5 mg/kg, route subcutaneous; conditions: in vivo
Rattus norvegicus [4] = assay: Toxicity in Wistar rat assessed as bile flow per gm of liver at 5 mg/kg, sc administered as single dose after 5 hrs (reference value: 1.40 +/- 0.14 ul/min); type: organism-based; design: dose 5 mg/kg, route subcutaneous; conditions: in vivo
Rattus norvegicus [5] = assay: Toxicity in Wistar rat assessed as serum ALP activity at 5 mg/kg, sc administered as single dose after 5 hrs (reference value: 256 +/- 10 U/l); type: organism-based; design: dose 5 mg/kg, route subcutaneous; conditions: in vivo
Rattus norvegicus [6] = assay: Toxicity in Wistar rat assessed as biliary excretion of total glutathione per gm of liver at 5 mg/kg, sc administered as single dose after 5 hrs (reference value: 2 +/- 0.79 nmol/min); type: organism-based; design: dose 5 mg/kg, route subcutaneous; conditions: in vivo
Hepatocyte [7] = assay: Effect on total ER level in Wistar rat hepatocytes nuclear extract at 10 uM after 30 to 120 mins by Western blot analysis; type: ADME, cell-based

C#C[C@]1(O)CC[C@H]2[C@@H]3CCc4cc(O)ccc4[C@H]3CC[C@@]21C [ETHINYL ESTRADIOL]
Activity (Rattus norvegicus [1]): 47 nmol/min | Activity (Hepatocyte [2]): Not Active | Activity (Rattus norvegicus [3]): 330% | Activity (Rattus norvegicus [4]): 1.35 µL/min | Activity (Rattus norvegicus [5]): 269 U/L | Activity (Rattus norvegicus [6]): 1.8 nmol/min | Activity (Hepatocyte [7]): Non-toxic
